Reference: patent US20250270256A1, “NOVEL ANTIMICROBIAL PEPTIDE WITH EXCELLENT MICROBIAL CYTOPLASM ELUTION EFFECT” (CELLICON LAB INC., priority 2021, published 2025)
Entries after “also recorded” stand apart in the source; their conditions may differ. Like-named read-outs stand apart in the source and are kept apart here. Where no end group is shown, it is not given here.

Assays:
[1] = test system: Candida albicans; type: cell-based
Experimental: (§1) In order to evaluate whether the antimicrobial peptides of the present disclosure have antimicrobial activity against bacteria other than Escherichia coli, antimicrobial effects against Escherichia coli, Staphylococcus aureus, Pseudomonas aeruginosa, and Candida albicans, which were strains announced by the Ministry of Food and Drug Safety, were examined.
(§2) Specifically, Escherichia coli, Staphylococcus aureus, and Pseudomonas aeruginosa were cultured using LB medium, and Candida albicans was cultured using YM medium, and then the cultured bacteria were dispensed into a 96-well plate. Antimicrobial peptide samples at various concentrations were added into the respective wells, and incubation was performed at 37° C. for 24 hours.

[2] = test system: Pseudomonas aeruginosa; type: cell-based
Experimental: as §1, §2

[3] = test system: Staphylococcus aureus; type: cell-based
Experimental: as §1, §2

[4] = test system: Escherichia coli; type: cell-based
Experimental: as §1, §2

[5] = test system: Escherichia coli; type: cell-based; conditions: for antimicrobial activity against Escherichia coli (in words): comparison between peptides, FIGS. 1A-4A
Experimental: Specifically, in order to evaluate the antimicrobial activity, the antimicrobial activity against Escherichia coli was measured, and Escherichia coli was treated with antimicrobial peptides, and cell viability was measured and compared.
In order to test the antimicrobial efficacy of antimicrobial peptides, Escherichia coli was cultured in LB medium for about 8 hours, and then the cultured bacteria were dispensed into a 96-well plate. Antimicrobial peptide samples at various concentrations were added into the respective wells, and incubation was performed at 37° C. for 24 hours.
In order to evaluate the antimicrobial activity against Escherichia coli, MIC (minimum inhibitory concentration) and IC50 were additionally measured in addition to the experiments conducted in Examples 1-1 and 1-2.
Specifically, an antimicrobial efficacy experiment was used as the experimental method, and the MIC and IC50 values for the experimental results were calculated by evaluating the minimum inhibitory concentration and the 50% inhibitory concentration with the absorbance and OD value, respectively.

[6] = test system: Human keratinocytes (HaCaT); conditions: 24 hours, comparison between peptides, FIGS. 1B-4B
Experimental: Therefore, cytotoxicity to human keratinocytes was also evaluated by treating human keratinocytes with antimicrobial peptides and measuring cell viability.
Human keratinocytes (HaCaT) were purchased from ATCC (American Type Culture Collection, USA) and cultured in Dulbecco's modified Eagle's medium (DMEM, Gibco, USA) containing 10% fetal bovine serum (FBS, Gibco, USA) and 1% antibiotic-antimycotic (Gibco, USA) at 37° C. in a 5% CO2 incubator.
MTT assay was performed to determine the viability of HaCaT cells against antimicrobial peptides. HaCaT cells were cultured in a 96-well plate at 2×10^5 cells/mL for 24 hours, then treated with samples at various concentrations, and cultured again for 24 hours. The culture medium was removed, and the cells were treated with MTT solution (0.5 mg/mL in PBS). After 4 hours, the MTT solution was removed, DMSO was added to each well, and formazan was dissolved at 37° C. for 30 minutes. Absorbance was measured at 570 nm using a microplate reader (Molecular Devices Spectra MAX, Sunnyvale, CA, USA).

[7] = test system: Escherichia coli; assay: Disk diffusion test (Kirby-Bauer): Escherichia coli; type: cell-based; conditions: 10 μL sample, 37° C. for 16 hours
Experimental: (§3) In order to perform a disk diffusion test for the four kinds of bacteria, the following experiment was conducted.
(§4) After Escherichia coli, Staphylococcus aureus, Pseudomonas aeruginosa, and Candida albicans were cultured in the respective media, a certain amount of the cultured bacteria was spread on unhardened solid media, and then the media were hardened. On the surface of the hardened solid medium, 10 μL of antimicrobial peptide sample was placed, a dry 3M paper disk was put thereon, then incubation was performed at 37° C. for 16 hours, and the size of the zone of inhibition was observed.

[8] = test system: Pseudomonas aeruginosa; assay: Disk diffusion test (Kirby-Bauer): Pseudomonas aeruginosa; type: cell-based; conditions: 10 μL sample, 37° C. for 16 hours
Experimental: as §3, §4

[9] = test system: Staphylococcus aureus; assay: Disk diffusion test (Kirby-Bauer): Staphylococcus aureus; type: cell-based; conditions: 10 μL sample, 37° C. for 16 hours
Experimental: as §3, §4

[10] = test system: Escherichia coli; assay: SEM analysis of Escherichia coli treated with peptide; type: cell-based; conditions: Escherichia coli treated for 30 minutes
Experimental: In order to closely examine the effect of the antimicrobial peptide of the present disclosure on microorganisms, Escherichia coli was treated with the peptide of SEQ ID NO: 6 for 30 minutes, and then the antimicrobial effect was analyzed using a scanning electron microscope (SEM).
Specifically, for SEM analysis, Escherichia coli was cultured using LB medium, then a certain amount of cultured Escherichia coli was taken and treated with the peptide of SEQ ID NO: 6 for 30 minutes, washed with PBS 2 times, and then fixed with a primary fixative of 2% paraformaldehyde in PBS for 2 hours. After fixation, washing with PBS was performed 2 times, dehydration with 30%, 50%, 70%, 80%, 95%, and 100% ethanol was performed for 10 minutes in each step (the last treatment with 100% ethanol was repeated 3 times), and the pellets were lyophilized. After platinum coating using a coater, analysis by SEM was conducted.

[11] = test system: Candida albicans; assay: Disk diffusion test (Kirby-Bauer): Candida albicans; type: cell-based; conditions: 10 μL sample, 37° C. for 16 hours
Experimental: as §3, §4

[12] = Candida albicans, YM medium, 24 hours at 37° C., read-out: IC50
[13] = Pseudomonas aeruginosa, LB medium, 24 hours at 37° C., read-out: IC50
[14] = Staphylococcus aureus, LB medium, 24 hours at 37° C., read-out: IC50
[15] = Escherichia coli, LB medium, 24 hours at 37° C., read-out: IC50
[16] = Escherichia coli, 24 hours at 37° C., absorbance 600 nm
[17] = Escherichia coli, 24 hours at 37° C., absorbance 600 nm, read-out: IC50

| Compound | IC50 [1, 12] | IC50 [2, 13] | IC50 [3, 14] | IC50 [4, 15] | antimicrobial activity against Escherichia coli (in words) [5] | toxicity level to human keratinocytes (in words) [6] | IC50 ([1]; 24 h) | IC50 ([2]; 24 h) | IC50 ([3]; 24 h) | IC50 ([4]; 24 h) | IC50 ([5]; 24 h) | MIC ([5]; 24 h) | zone of inhibition [7] | zone of inhibition [8] | MIC [5, 16] | IC50 [5, 17] | zone of inhibition [9] | effect on cell membrane observed by SEM [10] | zone of inhibition [11] |
| --- | --- | --- | --- | --- | --- | --- | --- | --- | --- | --- | --- | --- | --- | --- | --- | --- | --- | --- | --- |
| CC[C@H](C)[C@H](NC(=O)[C@H](CCCCN)NC(=O)[C@H](CCCCN)NC(=O)[C@H](Cc1ccccc1)NC(=O)[C@H](CC(C)C)NC(=O)[C@H](CCCCN)NC(=O)[C@@H](N)CCCCN)C(=O)N[C@@H](CC(C)C)C(=O)N[C@@H](CCCCN)C(=O)N[C@@H](Cc1ccc(O)cc1)C(=O)N[C@@H](CC(C)C)C(=O)N[C@@H](CCCCN)C(=O)O [SEQ ID NO: 1, H2N-[Lys-Lys-Leu-Phe-Lys-Lys-Ile-Leu-Lys-Tyr-Leu-Lys]-CO2H] | 19 µM | 12 µM | 22 µM | 21 µM | remarkably increased compared to that of the known peptide | maintained at a similar level to that of the known peptide |  |  |  |  |  |  |  |  |  |  |  |  |  |
| H-KRLFKRILRYLK-OH [SEQ ID NO: 7, H2N-[Lys-Arg-Leu-Phe-Lys-Arg-Ile-Leu-Arg-Tyr-Leu-Lys]-CO2H] |  |  |  |  |  |  | 10 µM | 8 µM | 13 µM | 11 µM | 11 µM | 62.5 µM |  |  |  |  |  |  |  |
| KRLFRKILKYLR [SEQ ID NO: 6, H2N-[Lys-Arg-Leu-Phe-Arg-Lys-Ile-Leu-Lys-Tyr-Leu-Arg]-CO2H] | 6 µM | 4 µM | 10 µM | 9 µM | most remarkably excellent |  |  |  |  |  |  |  | transparent zones of inhibition with clear borders | transparent zones of inhibition with clear borders | 31.25 µM | 9 µM | transparent zones of inhibition with clear borders | entire cell membrane of Escherichia coli is destroyed to form large pores and elution of cell contents of the bacteria is observed | transparent zones of inhibition with clear borders |
| RKLFKRILRYLK [SEQ ID NO: 5, H2N-[Arg-Lys-Leu-Phe-Lys-Arg-Ile-Leu-Arg-Tyr-Leu-Lys]-CO2H] | 11 µM | 9 µM | 15 µM | 12 µM |  |  |  |  |  |  |  |  |  |  | 62.5 µM | 12 µM |  |  |  |
| RKLFRKILKYLR [SEQ ID NO: 8, H2N-[Arg-Lys-Leu-Phe-Arg-Lys-Ile-Leu-Lys-Tyr-Leu-Arg]-CO2H] | 8 µM | 5 µM | 10 µM | 10 µM | most remarkably excellent |  |  |  |  |  |  |  |  |  | 31.25 µM | 10 µM |  |  |  |
| RRLFRRILRYLR [SEQ ID NO: 2, H2N-[Arg-Arg-Leu-Phe-Arg-Arg-Ile-Leu-Arg-Tyr-Leu-Arg]-CO2H] | 13 µM | 10 µM | 17 µM | 14 µM | remarkably increased compared to that of the peptide of SEQ ID NO: 1; also recorded: remarkably excellent compared to that of the peptides of SEQ ID NO: 3 and SEQ ID NO: 4 | maintained at a level similar to that of SEQ. ID NO: 1 peptide; also recorded: greatly decreased compared to that of the peptides of SEQ ID NO: 3 and SEQ ID NO: 4 |  |  |  |  |  |  |  |  | 62.5 µM | 14 µM |  |  |  |
